These results are taken from BindingDB's records for doi:10.1124/jpet.103.059675 (Wyeth Research, 2004).

For test [1], the target named is T1, A disintegrin and metalloproteinase with thrombospondin motifs 4 (Homo sapiens, UniProt O75173).
T1 sequence (O75173 whole entry): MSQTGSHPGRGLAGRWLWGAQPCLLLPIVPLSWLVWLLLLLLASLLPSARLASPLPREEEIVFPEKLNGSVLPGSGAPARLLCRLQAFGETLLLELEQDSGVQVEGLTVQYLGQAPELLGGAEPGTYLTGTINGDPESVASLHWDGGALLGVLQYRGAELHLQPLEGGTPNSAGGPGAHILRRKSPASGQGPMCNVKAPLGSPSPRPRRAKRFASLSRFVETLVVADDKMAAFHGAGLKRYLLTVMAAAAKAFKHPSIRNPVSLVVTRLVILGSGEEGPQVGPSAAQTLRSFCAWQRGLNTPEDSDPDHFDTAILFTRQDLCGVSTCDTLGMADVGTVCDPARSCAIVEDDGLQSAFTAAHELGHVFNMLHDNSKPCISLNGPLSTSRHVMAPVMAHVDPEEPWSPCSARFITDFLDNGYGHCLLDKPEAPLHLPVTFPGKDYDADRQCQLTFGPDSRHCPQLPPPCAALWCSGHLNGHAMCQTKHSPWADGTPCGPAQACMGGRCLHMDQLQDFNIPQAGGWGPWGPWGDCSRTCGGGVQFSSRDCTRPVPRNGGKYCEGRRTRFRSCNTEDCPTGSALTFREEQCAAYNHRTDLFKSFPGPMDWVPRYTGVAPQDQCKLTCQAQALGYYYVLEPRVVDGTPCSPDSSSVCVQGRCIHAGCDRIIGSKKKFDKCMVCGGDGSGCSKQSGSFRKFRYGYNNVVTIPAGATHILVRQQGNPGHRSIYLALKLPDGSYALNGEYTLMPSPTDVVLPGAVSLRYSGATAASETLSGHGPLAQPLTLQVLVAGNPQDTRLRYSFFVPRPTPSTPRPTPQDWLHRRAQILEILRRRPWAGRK
Description: Aggrecanase-1 Inhibition Assay. To be noted: pH 7.5; 37 °C. The method, then: The recombinant Agg-1 proteins pretreated with the various concentrations of the compound for 10 to 15 min. The reaction was initiated by addition of the WAAG-3R substrate at a final concentration of 25 uM. The reaction is monitored at excitation of 340 nm and emission of 420 nm over a period of 30 min in a fluorimeter (GeminiXS; Molecular Devices Corp., Sunnyvale, CA).

The target of test [2] is Matrix metalloproteinase-14 (Homo sapiens, UniProt P50281). Kind of test: MMP Inhibition Assay. The settings on record: pH 7.4; 22 °C. The method, then: (§1) A continuous assay was used in which the substrate is a synthetic peptide containing a fluorescent group (7-methoxycoumarin), which is quenched by energy transfer to a 2,4-dinitrophenyl group. […] The enzymatic reactions were initiated by adding the substrate, and the initial rate of the cleavage reaction was determined immediately after substrate addition.

The target in test [3] is T2, Matrilysin (Homo sapiens, UniProt P09237).
T2 sequence (P09237 whole entry): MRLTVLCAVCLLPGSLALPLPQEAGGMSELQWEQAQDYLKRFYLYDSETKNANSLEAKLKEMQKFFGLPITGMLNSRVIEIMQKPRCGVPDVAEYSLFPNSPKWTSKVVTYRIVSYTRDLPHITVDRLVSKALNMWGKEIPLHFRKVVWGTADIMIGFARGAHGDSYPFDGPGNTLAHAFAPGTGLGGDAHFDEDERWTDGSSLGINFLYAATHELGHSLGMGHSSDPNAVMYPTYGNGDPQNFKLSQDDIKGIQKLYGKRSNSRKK
Kind of test: MMP Inhibition Assay. To be noted: pH 7.4; 22 °C. The method, then: as §1

Test [4] concerns the target T3, Interstitial collagenase (Homo sapiens, UniProt P03956).
T3 sequence (P03956 whole entry): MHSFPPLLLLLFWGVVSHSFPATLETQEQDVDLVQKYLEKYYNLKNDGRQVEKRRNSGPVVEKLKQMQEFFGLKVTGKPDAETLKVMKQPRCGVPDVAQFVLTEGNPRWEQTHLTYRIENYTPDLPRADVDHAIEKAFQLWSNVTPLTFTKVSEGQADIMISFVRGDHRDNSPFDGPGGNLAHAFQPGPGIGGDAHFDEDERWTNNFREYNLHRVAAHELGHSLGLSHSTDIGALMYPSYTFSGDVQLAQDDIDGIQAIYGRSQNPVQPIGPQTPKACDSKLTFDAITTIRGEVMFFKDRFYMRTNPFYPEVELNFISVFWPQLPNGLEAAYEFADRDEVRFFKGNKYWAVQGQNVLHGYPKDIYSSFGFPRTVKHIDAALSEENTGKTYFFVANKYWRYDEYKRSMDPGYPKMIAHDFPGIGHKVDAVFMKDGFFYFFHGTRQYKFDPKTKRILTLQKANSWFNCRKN
Kind of test: MMP Inhibition Assay. To be noted: pH 7.4; 22 °C. The method, then:
as §1

In test [5] the target is 72 kDa type IV collagenase (Homo sapiens, UniProt P08253). Kind of test: MMP Inhibition Assay. The settings on record: pH 7.4; 22 °C. The method, then:
as §1

For test [6], the target named is Disintegrin and metalloproteinase domain-containing protein 17 (Homo sapiens, UniProt P78536). Kind of test: TACE Inhibition Assay. To be noted: pH 7.4; 22 °C. The method, then:
Compounds were tested for their ability to inhibit the cleavage of the substrate by the purified enzyme in a fluorescence-based fluorescence resonance energy transfer (FRET) assay. The human TACE protein was pretreated with the inhibitors for 10 min at room temperature. The reaction was initiated by the addition of pro-TNF-alpha peptide to the TACE protein, and the increase in fluorescence was monitored at excitation of 320 nm and emission of 420 nm over a period of 10 min. Under this assay condition, the IC50 value is very close to the Ki value.

Sequence of 72 kDa type IV collagenase (P08253 whole entry): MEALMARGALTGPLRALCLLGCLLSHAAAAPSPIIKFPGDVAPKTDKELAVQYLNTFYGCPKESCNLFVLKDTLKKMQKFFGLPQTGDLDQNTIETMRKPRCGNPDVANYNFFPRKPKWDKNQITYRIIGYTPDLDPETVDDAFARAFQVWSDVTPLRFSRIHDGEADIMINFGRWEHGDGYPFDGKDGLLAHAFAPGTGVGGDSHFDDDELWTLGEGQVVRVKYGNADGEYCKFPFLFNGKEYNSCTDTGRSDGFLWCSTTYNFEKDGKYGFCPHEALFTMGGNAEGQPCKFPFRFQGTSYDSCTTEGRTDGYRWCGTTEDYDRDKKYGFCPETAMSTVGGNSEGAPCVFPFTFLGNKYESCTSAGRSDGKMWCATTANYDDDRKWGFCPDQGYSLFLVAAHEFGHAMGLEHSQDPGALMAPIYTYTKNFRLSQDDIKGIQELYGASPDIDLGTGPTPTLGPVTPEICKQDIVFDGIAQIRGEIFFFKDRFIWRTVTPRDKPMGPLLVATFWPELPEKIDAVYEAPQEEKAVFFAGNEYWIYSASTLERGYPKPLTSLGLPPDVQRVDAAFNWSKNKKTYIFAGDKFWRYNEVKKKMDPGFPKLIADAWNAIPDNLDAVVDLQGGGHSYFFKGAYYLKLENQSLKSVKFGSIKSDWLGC
Sequence of Disintegrin and metalloproteinase domain-containing protein 17 (P78536 whole entry, the tested form may be a part): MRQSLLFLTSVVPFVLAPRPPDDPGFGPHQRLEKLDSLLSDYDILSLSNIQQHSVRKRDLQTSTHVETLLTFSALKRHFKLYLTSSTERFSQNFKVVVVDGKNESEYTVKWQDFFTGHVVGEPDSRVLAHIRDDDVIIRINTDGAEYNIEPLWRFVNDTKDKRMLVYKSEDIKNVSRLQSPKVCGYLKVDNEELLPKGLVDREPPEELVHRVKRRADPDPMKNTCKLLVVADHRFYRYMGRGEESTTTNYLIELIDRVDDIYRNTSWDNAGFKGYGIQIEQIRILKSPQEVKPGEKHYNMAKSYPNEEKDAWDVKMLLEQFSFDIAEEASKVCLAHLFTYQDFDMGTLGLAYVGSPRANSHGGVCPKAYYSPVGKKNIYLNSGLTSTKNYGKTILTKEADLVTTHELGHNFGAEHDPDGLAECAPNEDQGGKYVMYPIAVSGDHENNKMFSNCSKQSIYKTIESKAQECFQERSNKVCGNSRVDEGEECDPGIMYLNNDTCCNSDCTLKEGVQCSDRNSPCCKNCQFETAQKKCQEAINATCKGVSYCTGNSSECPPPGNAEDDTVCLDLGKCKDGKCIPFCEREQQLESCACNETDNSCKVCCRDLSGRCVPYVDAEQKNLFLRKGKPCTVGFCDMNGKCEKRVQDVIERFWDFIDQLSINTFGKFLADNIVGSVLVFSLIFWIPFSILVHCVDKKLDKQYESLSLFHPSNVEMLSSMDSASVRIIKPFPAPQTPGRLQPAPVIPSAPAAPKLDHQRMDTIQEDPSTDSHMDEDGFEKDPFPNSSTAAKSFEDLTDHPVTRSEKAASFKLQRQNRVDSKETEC

As usually defined, the IC50 is the concentration that inhibits the measured activity by half. Take `CC#CCOc1ccc(S(=O)(=O)N2CCSC(C)(C)[C@@H]2C(=O)NO)cc1` [(3S)-4-{[4-(but-2-yn-1-yloxy)benzene]sulfonyl}-N-hydroxy-2,2-dimethylthiomorpholine-3-carboxamide]: the IC50 in test [1] turned out to be 100 nM; in test [2], 26 nM; in test [3], 26 nM; in test [4], 6.6 nM; in test [5], 4.7 nM; in test [6], 8.4 nM.
